Residues, ends and D or L forms follow the SMILES beside them. *: point of attachment. Cbz = O=C(OCc1ccccc1)*
Experiments:
Assay type in all cases: cell-based
KEAP1 mutant cell lines = assay: Viability of KEAP1 wild-type versus KEAP1 mutant cell lines
Description: FIG. 56A is a graph showing the IC50 of the glutaminase inhibitor BPTES on KEAP1 wild-type cell lines versus KEAP1 mutant cell lines.
FIG. 56B is a graph showing the viability of KEAP1 wild-type cell lines versus KEAP1 mutant cell lines in response to the glutaminase inhibitor BPTES.
FIG. 57A is a graph showing the IC50 of the […] buthionine sylphoximine (BSO) on KEAP1 wild-type cell lines versus KEAP1 mutant cell lines.
FIG. 57B is a graph showing the viability of KEAP1 wild-type cell lines versus KEAP1 mutant cell lines in response to BSO.

full-length NRF2 = assay: Effect of KEAP1 on NRF2 expression in transfected 293 cells (Western blot); details: 293 cells transfected with NRF2 and KEAP1 plasmids
Procedure: FIG. 23 is a set of immunoblots showing the effect of NRF2 exon 2 and exon 2+3 deletions on KEAP1 interaction. 293 cells were transfected with plasmids expressing FLAG-NRF2, Δe2 FLAG-NRF2, Δe2+3 FLAG-NRF2 or HA-KEAP1. 48 hours after transfection, cells were lysed, and either lysates (top gel) or anti-FLAG immunoprecipitations were analyzed by Western blotting using the indicated antibodies.
Plasmid DNAs were transfected into cells using Lipofectamine 2000 (ThermoFisher) and OptiMEM (Gibco) as recommended by manufacturer protocol. Lysates were prepared 2-3 days post transfection. Expression plasmids used were pRK5.NRF2, pRK5.NRF2δe2, pRK5.NRF2δe2,3, pRK5.NRF2.FLAG and pRK5.KEAP1.HA.

A549 cells = assay: Colony growth of A549 cells in soft agar; details: Homo sapiens, read-out: IC50 for inhibiting colony growth of A549 cells in soft agar
Procedure: (§1) FIG. 62 is a series of photographs showing colony formation of KEAP1 mutant cell lines and KEAP1 wild-type cell lines grown in soft agar (anchorage independent conditions) in the presence of IGF1 R inhibitors linsitinib and NVP-AEW541, and in the presence or absence of glutathione.
(§2) Expression of IGF1 R was greater in KEAP1 mutant NSCLC cells relative to KEAP1 wild-type NSCLC cell lines. To test the effect of IGF1 R inhibition on KEAP1 mutant and KEAP1 wild-type cells, cell lines were treated with linsitinib, a potent and selective IGF1 R small molecule inhibitor. […] However, this compound was very potent at inhibiting colony growth of A549 cells in soft agar, having an IC50 of about 20 nM.

[1] = test system: three wild-type and three mutant KEAP1 NSCLC cell lines; assay: Proliferation of wild-type and mutant KEAP1 NSCLC cell lines
[2] = test system: KEAP1 mutant cell lines and KEAP1 wild-type cell lines; assay: Growth in soft agar (anchorage independent conditions) of a panel of NSCLC cell lines
Procedure: as §1, §2

[3] = test system: reactive oxygen species (ROS); assay: ROS levels measured by H2DCF; details: exogenous glutathione, dichlorofluorescein staining
Description: FIG. 49 is bar graph showing reactive oxygen species (ROS) levels under indicated conditions as measured using 2′,7′-dichlorodihydrofluorescein diacetate (H2DCF). Error bars represent standard deviation from triplicate wells.
FIG. 53 is a histogram showing increasing ROS levels in response to shNRF2 and/or erastin, as measured by H2DCF.

[4] = test system: KEAP1 mutant and KEAP1 wild-type cell lines; assay: Colony formation in soft agar with or without NRF2 knockdown
Procedure: Representative areas of the plate were photographed. FIG. 44 is a series of bar graphs showing the quantified colony formation for each cell type and treatment group shown in FIG. 43. Error bars represent standard deviation from biological triplicate wells. FIG. 48 is a series of photographs showing A549 cells expressing NRF2sh10 shRNA plated into regular tissue culture dishes (top) or soft agar (bottom). Cells were treated with either vehicle or 500 ng/ml doxycycline, in the presence or absence of 2 mM N-acetyl cysteine (NAC).

Compound: O=C(Cc1ccccc1)Nc1nnc(CCSCCc2nnc(NC(=O)Cc3ccccc3)s2)s1 [BPTES]
- preferential toxicity for KEAP1 mutant cell lines (KEAP1 mutant cell lines): did not display preferential toxicity

Compound: CCCCS(=N)(=O)CCC(N)C(=O)O (stereo not drawn) [BSO, buthionine sylphoximine]
- preferential toxicity for KEAP1 mutant cell lines (KEAP1 mutant cell lines): did not display preferential toxicity

Compound: CC(C)C[C@@H](C=O)NC(=O)[C@H](CC(C)C)NC(=O)[C@H](CC(C)C)NC(=O)OCc1ccccc1 [MG132] (Cbz-Leu-Leu-Leu-aldehyde)
- inhibitory effect of KEAP1 on full-length NRF2 expression (full-length NRF2): mostly abolished

Compound: C[C@]1(O)C[C@@H](c2nc(-c3ccc4ccc(-c5ccccc5)nc4c3)c3c(N)nccn32)C1 [linsitinib]
- IC50 (A549 cells): ~20 nM
- effect on proliferation [1]: little effect on proliferation
- selectivity of growth inhibition for KEAP1 mutant cell lines [2]: selective growth inhibition in soft agar of this compound in KEAP1 mutant cell lines

Compound: N[C@@H](CCC(=O)N[C@@H](CS)C(=O)NCC(=O)O)C(=O)O [reduced glutathione, glutathione]
- ROS levels [3]: reduce reactive oxygen (ROS) levels
- ability to form colonies in soft agar ([4]; all tested cell lines, 1 mM reduced glutathione): generally increased the ability of all tested cell lines to form colonies in soft agar
- rescue of the consequences of NRF2 knockdown ([4]; soft agar, dox-induced NRF2 shRNA): unable to rescue the consequences of NRF2 knockdown
